According to PubChem BioAssay AID248 (DTP/NCI, 2004):
Inconclusive results and toxic doses are left out. No stated cut-off is given here; in the data, active means T/C of 150% or more; inactive means T/C below 125%.

System: L1210 leukemia ip in BDF1 mice, survival T/C
Experiment: NCI In Vivo Anticancer Drug Screen. Data for tumor model L1210 Leukemia (intraperitoneal) in B6D2F1 (BDF1) mice
Conditions: endpoint: mean survival time, higher = longer survival
Outline: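 In this screen, tumor-bearing mice given compound are compared to those given vehicle, and their survival values are reported as a treated-to-control quotient.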

[1] = dose: 100.0 mg/kg/injection, schedule: Q04DX003 (ip), vehicle: saline with Tween-80
[2] = dose: 200.0 mg/kg/injection, schedule: Q04DX003 (ip), vehicle: saline with Tween-80
[3] = dose: 400.0 mg/kg/injection, schedule: Q04DX003 (ip), vehicle: saline with Tween-80
[4] = dose: 100.0 mg/kg/injection, schedule: Q04DX003 (ip), vehicle: saline
[5] = dose: 200.0 mg/kg/injection, schedule: Q04DX003 (ip), vehicle: saline
[6] = dose: 100.0 mg/kg/injection, schedule: Q01DX001 (ip), vehicle: Klucel (hydroxypropylcellulose) (HPC)
[7] = dose: 100.0 mg/kg/injection, schedule: Q04DX003 (ip), vehicle: Klucel (hydroxypropylcellulose) (HPC)
[8] = dose: 200.0 mg/kg/injection, schedule: Q01DX001 (ip), vehicle: Klucel (hydroxypropylcellulose) (HPC)
[9] = dose: 200.0 mg/kg/injection, schedule: Q04DX003 (ip), vehicle: Klucel (hydroxypropylcellulose) (HPC)
[10] = dose: 400.0 mg/kg/injection, schedule: Q01DX001 (ip), vehicle: Klucel (hydroxypropylcellulose) (HPC)
[11] = dose: 400.0 mg/kg/injection, schedule: Q04DX003 (ip), vehicle: Klucel (hydroxypropylcellulose) (HPC)
[12] = dose: 50.0 mg/kg/injection, schedule: Q01DX009 (ip), vehicle: saline
[13] = dose: 50.0 mg/kg/injection, schedule: Q04DX003 (ip), vehicle: saline
[14] = dose: 50.0 mg/kg/injection, schedule: Q01DX009 (ip), vehicle: Klucel (hydroxypropylcellulose) (HPC)
[15] = dose: 100.0 mg/kg/injection, schedule: Q01DX009 (ip), vehicle: Klucel (hydroxypropylcellulose) (HPC)
[16] = dose: 200.0 mg/kg/injection, schedule: Q01DX009 (ip), vehicle: Klucel (hydroxypropylcellulose) (HPC)
[17] = dose: 400.0 mg/kg/injection, schedule: Q01DX009 (ip), vehicle: Klucel (hydroxypropylcellulose) (HPC)
[18] = dose: 25.0 mg/kg/injection, schedule: Q01DX009 (ip), vehicle: saline
[19] = dose: 100.0 mg/kg/injection, schedule: Q04DX002 (ip), vehicle: Klucel (hydroxypropylcellulose) (HPC)
[20] = dose: 200.0 mg/kg/injection, schedule: Q04DX002 (ip), vehicle: Klucel (hydroxypropylcellulose) (HPC)
[21] = dose: 400.0 mg/kg/injection, schedule: Q04DX002 (ip), vehicle: Klucel (hydroxypropylcellulose) (HPC)
[22] = dose: 50.0 mg/kg/injection, schedule: Q04DX002 (ip), vehicle: gum acacia
[23] = dose: 100.0 mg/kg/injection, schedule: Q01DX001 (ip), vehicle: saline
[24] = dose: 200.0 mg/kg/injection, schedule: Q01DX001 (ip), vehicle: saline
[25] = dose: 400.0 mg/kg/injection, schedule: Q01DX001 (ip), vehicle: saline

Measured: T/C

CC12CCC(CC1)C(O)C2 (stereo not drawn)
inactive: dose: 100.0 mg/kg/injection, schedule: Q01DX001 (ip), vehicle: saline with Tween-80 104 % of control | [1] 97 % of control | dose: 200.0 mg/kg/injection, schedule: Q01DX001 (ip), vehicle: saline with Tween-80 101 % of control | [2] 101 % of control | dose: 400.0 mg/kg/injection, schedule: Q01DX001 (ip), vehicle: saline with Tween-80 98 % of control | [3] 87 % of control

N#[N+]c1c([O-])[nH]c(=S)[nH]c1=O
inactive: dose: 100.0 mg/kg/injection, schedule: Q01DX009 (ip), vehicle: acetone 92 % of control | dose: 100.0 mg/kg/injection, schedule: Q04DX003 (ip), vehicle: acetone 100 % of control | dose: 200.0 mg/kg/injection, schedule: Q01DX009 (ip), vehicle: acetone 96 % of control | dose: 200.0 mg/kg/injection, schedule: Q04DX003 (ip), vehicle: acetone 103 % of control | dose: 400.0 mg/kg/injection, schedule: Q01DX009 (ip), vehicle: acetone 88 % of control | dose: 400.0 mg/kg/injection, schedule: Q04DX003 (ip), vehicle: acetone 94 % of control

O=C1N/C(=N\OCc2ccccc2)CC(NOCc2ccccc2)N1 (stereo not drawn)
inactive: [1] 101 % of control | [2] 97 % of control | [3] 97 % of control

O=C(O)C1CCCS1(=O)=O (stereo not drawn)
inactive: [4] 96 % of control | [5] 94 % of control | dose: 400.0 mg/kg/injection, schedule: Q04DX003 (ip), vehicle: saline 88 % of control

O=[N+]([O-])c1cccc(/C=C/S(=O)(=O)c2ccccc2)c1
inactive: [6] 107 % of control | [7] 103 % of control | [8] 95 % of control | [9] 103 % of control | [10] 104 % of control | [11] 100 % of control

CNC1=C(C)C(=O)C2=C(C1=O)C(COC(N)=O)C1(O)C3C(CN21)N3C (stereo not drawn)
inactive: dose: 6.6 mg/kg/injection, schedule: Q01DX001 (ip), vehicle: alcohol 100 % of control | dose: 15.0 mg/kg/injection, schedule: Q01DX001 (ip), vehicle: acetone 104 % of control

O=CNNC(=O)c1ccccn1
inactive: dose: 50.0 mg/kg/injection, schedule: Q01DX001 (ip), vehicle: water 108 % of control | [12] 98 % of control | [13] 100 % of control | dose: 100.0 mg/kg/injection, schedule: Q01DX001 (ip), vehicle: water 108 % of control | dose: 100.0 mg/kg/injection, schedule: Q01DX009 (ip), vehicle: saline 101 % of control | [4] 96 % of control | dose: 200.0 mg/kg/injection, schedule: Q01DX009 (ip), vehicle: saline 114 % of control | [5] 109 % of control

Oc1ccc(N=Nc2ccccc2)c(O)c1.Oc1ccc(N=Nc2ccccc2)c(O)c1.[Cu]
inactive: dose: 50.0 mg/kg/injection, schedule: Q01DX001 (ip), vehicle: carboxymethylcellulose (CMC) 90 % of control | dose: 400.0 mg/kg/injection, schedule: Q01DX001 (ip), vehicle: carboxymethylcellulose (CMC) 87 % of control

COC(=O)/C=C1\Nc2ccc([N+](=O)[O-])cc2NC1=O
inactive: [14] 87 % of control | [15] 94 % of control | [16] 100 % of control

CCCCCCCCCCCCCCCCCCNC(=O)Nc1ccccc1CC
inactive: dose: 100.0 mg/kg/injection, schedule: Q01DX009 (sc), vehicle: olive oil, sesame oil, peanut oil 104 % of control | dose: 100.0 mg/kg/injection, schedule: Q04DX003 (sc), vehicle: olive oil, sesame oil, peanut oil 98 % of control | dose: 200.0 mg/kg/injection, schedule: Q01DX009 (sc), vehicle: olive oil, sesame oil, peanut oil 104 % of control | dose: 200.0 mg/kg/injection, schedule: Q04DX003 (sc), vehicle: olive oil, sesame oil, peanut oil 94 % of control | dose: 400.0 mg/kg/injection, schedule: Q01DX009 (sc), vehicle: olive oil, sesame oil, peanut oil 106 % of control | dose: 400.0 mg/kg/injection, schedule: Q04DX003 (sc), vehicle: olive oil, sesame oil, peanut oil 109 % of control

C=C(C)C1CC=C(C=O)CC1 (stereo not drawn)
inactive: [6] 93 % of control | [15] 94 % of control | [7] 101 % of control | [8] 92 % of control | [16] 109 % of control | [9] 98 % of control | [10] 92 % of control | [11] 101 % of control

C(=N\Nc1nc2ccccc2o1)/c1ccncc1
inactive: [15] 95 % of control | [16] 104 % of control | [17] 104 % of control

CCS/C(N)=N\N
inactive: dose: 12.5 mg/kg/injection, schedule: Q01DX009 (ip), vehicle: saline 95 % of control | [18] 98 % of control | dose: 25.0 mg/kg/injection, schedule: Q04DX003 (ip), vehicle: saline 113 % of control | [12] 104 % of control | [13] 98 % of control

CCN(CC)CCn1cnc2cc([N+](=O)[O-])ccc21
inactive: dose: 20.0 mg/kg/injection, schedule: Q01DX001 (ip), vehicle: Klucel (hydroxypropylcellulose) (HPC) 101 % of control | dose: 40.0 mg/kg/injection, schedule: Q01DX001 (ip), vehicle: Klucel (hydroxypropylcellulose) (HPC) 98 % of control

COc1ccc2c(c1)sc1ncnc(N)c12
inactive: [14] 105 % of control | [15] 105 % of control | [16] 101 % of control

O=[N+]([O-])c1cccc(CO)c1-c1c(CO)cccc1[N+](=O)[O-]
inactive: dose: 100.0 mg/kg/injection, schedule: Q01DX009 (ip), vehicle: saline with Tween-80 101 % of control | dose: 200.0 mg/kg/injection, schedule: Q01DX009 (ip), vehicle: saline with Tween-80 102 % of control | dose: 400.0 mg/kg/injection, schedule: Q01DX009 (ip), vehicle: saline with Tween-80 101 % of control

CCCCCCCCCC(CCCCCCCC)SC(C)=O (stereo not drawn)
inactive: [19] 108 % of control | [20] 103 % of control | [21] 103 % of control

O=C(Cc1ccccc1)Nc1ccc(Cl)cc1C(=O)c1ccccc1
inactive: dose: 100.0 mg/kg/injection, schedule: Q04DX002 (ip), vehicle: saline 101 % of control | dose: 200.0 mg/kg/injection, schedule: Q04DX002 (ip), vehicle: saline 93 % of control | dose: 400.0 mg/kg/injection, schedule: Q04DX002 (ip), vehicle: saline 90 % of control

O/N=C(/CBr)c1ccccc1
inactive: dose: 12.5 mg/kg/injection, schedule: Q04DX002 (ip), vehicle: gum acacia 109 % of control | dose: 25.0 mg/kg/injection, schedule: Q04DX002 (ip), vehicle: gum acacia 87 % of control | [22] 102 % of control

N#CCCn1c2ccccc2c2ccccc21
inactive: dose: 50.0 mg/kg/injection, schedule: Q01DX001 (ip), vehicle: saline 96 % of control | [22] 91 % of control | [23] 102 % of control | dose: 100.0 mg/kg/injection, schedule: Q04DX002 (ip), vehicle: gum acacia 91 % of control | [24] 102 % of control | dose: 200.0 mg/kg/injection, schedule: Q04DX002 (ip), vehicle: gum acacia 98 % of control | [25] 96 % of control

COC(=O)c1cc2c(cc1[N+](=O)[O-])OCO2
inactive: [19] 114 % of control | [20] 114 % of control | [21] 95 % of control

CC(CC(C)(C)C(C)(C)C)C(C)(C)C (stereo not drawn)
inactive: [23] 90 % of control | [24] 100 % of control | [25] 107 % of control

O=S1(=O)C=C(Cl)C(Cl)C1 (stereo not drawn)
inactive: [18] 93 % of control | [12] 86 % of control | [13] 95 % of control | [23] 93 % of control | [4] 92 % of control | [24] 102 % of control

O=C(O)c1cc(Br)cc(I)c1Br
inactive: [19] 105 % of control | [20] 117 % of control | [21] 105 % of control

CCOC(=O)C1CCc2c(ccc3ccccc23)N1C(C)=O (stereo not drawn)
inactive: [15] 94 % of control | [16] 88 % of control | [17] 91 % of control
